Here are results for 13 molecules from patent US20260272934A1 (The United States of America, as represented by the …, priority 2023, published 2026).

Read-outs that look alike come from different tables or passages of the source. Bounds are passed on as bounds.

As usually defined, the IC50 is the concentration that gives 50% inhibition. Broadly, the GI50 is the concentration giving 50% growth inhibition.

Data set [1] addresses T1, full-length Plk1 / biotinylated PBIP1 phospho-T78 peptide interaction (Homo sapiens, UniProt P53350).
T1 construct: HA; EGFP; expressed in transfected cells; host or cells: HEK293A cells infected with adenovirus; total lysates
Briefly: ELISA-based PBD1-binding inhibition assay. The conditions noted are these: at least three independent experiments; read-out: ELISA (IC50) Mean ± SEM. On the technique in general: ELISA stands for enzyme-linked immunosorbent assay.

Data set [2] relates to multiple myeloma-derived L363 cells. Kind of data set: Colorimetric MTS cell viability assay. The data set is classed as cell-based. The note with it: for GI50: Homo sapiens, L-363, N.S. = Not significant, read-out: Cell efficacy (GI50) Mean ± SD; for Cell efficacy (GI50) Mean ± SD: N.S. = Not significant. From the text:
• *Data from Park, J. E., et al {Park, 2023 #3387}. **Data from Alverez C. N., et al {Alverez, 2020 #3186}. N. S., Not significant; N. D., Not determined. ^a IC50 values determined from at least three independent experiments except as noted in parentheses. b A colorimetric MTS cell viability assay carried out using multiple myeloma-derived L363 cells.

Data set [3] is described as follows: Solubility remark in Table 1. It counts as physicochemical.
In another data set the test system is Plk2 PBD. Briefly: FP-based inhibition assay. It counts as binding. The conditions noted are these: N.S. = Not significant. On the procedure:
(§1) In the following, PBD1-3 fluorescence polarization (FP) binding assays were carried out for determining the Plk1 specificity. FP assays were carried out essentially as described previously {Liu, 2011 #2790; Qian, 2014 #1416}. All samples were analyzed approximately 30 min after reaction in a 384-well format using the SpectraMax Paradigm multi-mode microplate detection platform (Molecular Devices). Data were analyzed after carrying out at least three independent experiments using GraphPad Prism software version 7.

The subject of another data set is Plk3 PBD. Kind of data set: FP-based inhibition assay. The note with it: N.S. = Not significant. The data set is classed as binding. The protocol: as §1
The next data set has as its target PBD1 (Homo sapiens, UniProt P53350). Kind of data set: FP-based inhibition assay. It counts as binding. The conditions noted are these: read-out: PBD1 IC50 ± SD. The protocol:
In the following, PBD1-3 fluorescence polarization (FP) binding assays were carried out for determining the Plk1 specificity. […] All samples were analyzed approximately 30 min after reaction in a 384-well format using the SpectraMax Paradigm multi-mode microplate detection platform (Molecular Devices). Data were analyzed after carrying out at least three independent experiments using GraphPad Prism software version 7.

Data set [4] addresses T1, full-length Plk1 / biotinylated PBIP1 phospho-T78 peptide interaction. The conditions noted are these: *Data from Park, J. E., et al 2023; read-out: ELISA (IC50) Mean ± SEM; cited from earlier work.
Data set [5] concerns multiple myeloma-derived L363 cells. The note with it: MTS, *Data from Park, J. E., cited from earlier work.
The conditions of data set [6]: *Data from Park, J. E., et al 2023; cited from earlier work.

T1 sequence (P53350 whole entry): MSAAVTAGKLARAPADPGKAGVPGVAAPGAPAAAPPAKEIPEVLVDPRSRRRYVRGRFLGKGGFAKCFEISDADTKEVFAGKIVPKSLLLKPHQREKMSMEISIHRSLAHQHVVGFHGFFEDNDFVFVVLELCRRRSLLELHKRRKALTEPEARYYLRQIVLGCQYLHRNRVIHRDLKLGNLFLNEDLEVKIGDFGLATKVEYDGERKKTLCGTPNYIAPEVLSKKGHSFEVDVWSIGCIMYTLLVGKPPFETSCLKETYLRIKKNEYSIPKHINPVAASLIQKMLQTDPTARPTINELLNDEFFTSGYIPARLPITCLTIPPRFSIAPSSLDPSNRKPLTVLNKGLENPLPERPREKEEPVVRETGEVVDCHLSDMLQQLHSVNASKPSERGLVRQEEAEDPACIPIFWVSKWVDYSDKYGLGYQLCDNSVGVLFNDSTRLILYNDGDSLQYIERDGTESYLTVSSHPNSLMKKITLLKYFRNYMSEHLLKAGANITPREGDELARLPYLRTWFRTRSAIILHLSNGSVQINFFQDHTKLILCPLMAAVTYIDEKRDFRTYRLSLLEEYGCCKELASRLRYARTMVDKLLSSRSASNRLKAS
Sequence of PBD1 (P53350 371-594 limits assumed): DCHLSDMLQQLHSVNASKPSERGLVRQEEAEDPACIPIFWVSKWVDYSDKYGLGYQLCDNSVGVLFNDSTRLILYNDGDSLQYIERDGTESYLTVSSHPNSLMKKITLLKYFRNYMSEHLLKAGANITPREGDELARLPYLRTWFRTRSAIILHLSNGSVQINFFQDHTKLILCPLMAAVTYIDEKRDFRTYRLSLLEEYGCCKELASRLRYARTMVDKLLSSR

With `CCCn1c(=O)c2oc3cccc(F)c3c2n2c(Sc3c([N+](=O)[O-])ncn3C)nnc12` [Compound 10, 10-Fluoro-1-((1-methyl-4-nitro-1H-imidazol-5-yl)thio)-4-propylbenzofuro[2,3-e][1,2,4]triazolo[4,3-a]pyrimidin-5 (4H)-one], the concentration for half-maximal inhibition (IC50) in data set [1] was more than 50 µM. For the same molecule, in data set [2], the 50% growth inhibitory concentration (GI50) came out at 7.53 ± 0.43 µM.
Regarding `CCCn1c(=O)c2sccc2n2c(Sc3c([N+](=O)[O-])ncn3C)nnc12` [Compound 12, 1-((1-Methyl-4-nitro-1H-imidazol-5-yl)thio)-4-propylthieno[2,3-e][1,2,4]triazolo[4,3-a]pyrimidin-5 (4H)-one], the concentration for half-maximal inhibition (IC50) in [1] was more than 50 µM. The concentration for 50% growth inhibition (GI50) in [2] came out at 8.4 ± 0.74 µM. Further, the “solubility” value in [3] is listed as “moderate solubility”.
As for `CCCn1c(=O)c2sc(Cl)cc2n2c(Sc3c([N+](=O)[O-])ncn3C)nnc12` [Compound 14, 7-Chloro-1-((1-methyl-4-nitro-1H-imidazol-5-yl)thio)-4-propylthieno[2,3-e][1,2,4]triazolo[4,3-a]pyrimidin-5 (4H)-one], the concentration for half-maximal inhibition (IC50) in data set [1] was more than 50 µM. For the same molecule, the concentration for 50% growth inhibition (GI50) in data set [2] came out at 6.04 ± 0.17 µM.
Regarding `CCCn1c(=O)c2oc3ccccc3c2n2c(Sc3c([N+](=O)[O-])ncn3C)nnc12` [Compound 8, 1-((1-Methyl-4-nitro-1H-imidazol-5-yl)thio)-4-propylbenzofuro[2,3-e][1,2,4]triazolo[4,3-a]pyrimidin-5(4H)-one], the half-maximal inhibitory concentration (IC50) in data set [1] is more than 50 µM. The GI50 in data set [2] was 8.31 ± 0.56 µM.
The like results for `CCCn1c(=O)c2sc3ccccc3c2n2c(Sc3c([N+](=O)[O-])ncn3C)nnc12` [Compound 18, 1-((1-Methyl-4-nitro-1H-imidazol-5-yl)thio)-4-propylbenzo[4,5]thieno[2,3-e][1,2,4]triazolo[4,3-a]pyrimidin-5 (4H)-one] were, in that order, more than 50 µM and 7.05 ± 0.27 µM.
Take `CC(=O)N1CCC[C@H]1C(=O)N[C@@H](CC(C)C)C(=O)N[C@@H](Cc1cnc[nH]1)C(=O)N[C@@H](CO)C(=O)N[C@H](C(=O)O)[C@@H](C)O` [Compound 1, PLHST, reference compound]: in data set [2], the “Cell efficacy (GI50) Mean ± SD” value is on record as “N.S”.
Take `Cc1cc2c(s1)c(=O)n(CC1CC1)c1nnc(Sc3c([N+](=O)[O-])ncn3C)n21` [Compound 6, 4-(Cyclopropylmethyl)-7-methyl-1-((1-methyl-4-nitro-1H-imidazol-5-yl)thio) thieno[2,3-e][1,2,4]triazolo[4,3-a]pyrimidin-5 (4H)-one]: the IC50 in [1] was more than 50 µM. The concentration for 50% growth inhibition (GI50) in data set [2] was determined as 3.13 ± 0.15 µM. For the same molecule, the “solubility” value in data set [3] is “low solubility”.
On to `CC(=O)N1CCC[C@H]1C(=O)N[C@@H](CC(C)C)C(=O)N[C@@H](Cc1cnc[nH]1)C(=O)N[C@@H](CO)C(=O)N[C@H](C(=O)O)[C@@H](C)OP(=O)(O)O` [Compound 2, PLHSpT, reference compound], for which, in [2], the “Cell efficacy (GI50) Mean ± SD” value is on record as “N.S”. In the data set with Plk2 PBD, the “Plk2 PBD IC50 ± SD” value is “N.S”. Further, in the data set with Plk3 PBD, the “Plk3 PBD IC50 ± SD” value was “N.S”.
Turning to `Cc1cc2c(s1)c(=O)n(CC1CC1)c1n[nH]c(=S)n21` [Compound 5, 4-(Cyclopropylmethyl)-7-methyl-1-thioxo-2,4-dihydrothieno[2,3-e][1,2,4]triazolo[4,3-a]pyrimidin-5 (1H)-one], the half-inhibitory concentration (IC50) in [1] worked out at 1.66 ± 0.04 µM; at PBD1 it was 0.0128 ± 0.0026 µM. The “Cell efficacy (GI50) Mean ± SD” value in data set [2] was “N.S”. In addition, the “Plk2 PBD IC50 ± SD” value in the data set with Plk2 PBD is “N.S”. In addition, the “Plk3 PBD IC50 ± SD” value with Plk3 PBD is reported as “N.S”.
For the molecule `CCCn1c(=O)c2sc(C)cc2n2c(Sc3c([N+](=O)[O-])ncn3C)nnc12` [Compound 4], the 50% inhibitory concentration (IC50) in data set [4] is more than 50 µM. Besides, the GI50 in data set [5] (et al 2023, read-out: Cell efficacy (GI50) Mean ± SD) was 4.88 ± 0.1 µM. In data set [6], the “solubility” value is “low solubility”.
Consider `CCCn1c(=O)c2sc(C(C)(C)C)cc2n2c(Sc3c([N+](=O)[O-])ncn3C)nnc12` [Compound 16, 7-(tert-Butyl)-1-((1-methyl-4-nitro-1H-imidazol-5-yl)thio)-4-propylthieno[2,3-e][1,2,4]triazolo[4,3-a]pyrimidin-5 (4H)-one], for which the concentration for half-maximal inhibition (IC50) in data set [1] was more than 50 µM. Moreover, the GI50 in [2] was 4.19 ± 0.15 µM. Further, the “solubility” value in [3] is “moderate solubility”.
Regarding `CCCn1c(=O)c2sc(C)cc2n2c(=S)[nH]nc12` [Compound 3], the IC50 was 0.0102 ± 0.0015 µM on PBD1 and 2.15 ± 0.13 µM in [4]. Besides, in the data set with Plk2 PBD, the “Plk2 PBD IC50 ± SD” value is “N.S”. Besides, in the data set with Plk3 PBD, the “Plk3 PBD IC50 ± SD” value is given as “N.S”. Moreover, in [5] (et al 2023), the “Cell efficacy (GI50) Mean ± SD” value is on record as “N.S”.
With `O=C(CCCCC1SCC2NC(=O)NC21)NCCOCCOCCOCCOCCC(=O)NCCCn1c(=O)c2cc(F)ccc2n2c(=S)[nH]nc12` (centres unmarked) [Compound 22, N-(3-(7-Fluoro-5-oxo-1-thioxo-1,2-dihydro-[1,2,4]triazolo[4,3-a]quinazolin-4 (5H)-yl)propyl)-1-(5-(2-oxohexahydro-1H-thieno[3,4-d]imidazol-4-yl)pentanamido)-3,6,9,12-tetraoxapentadecan-15-amide], the IC50 in [1] was found to be 9.32 ± 0.17 µM.
